{"source": "the NIST ThermoML archive (doi:10.1021/je900042q)", "key": {"[1]": {"assay": "refractive index (Na D-line) (dimensionless)", "details": "298.15 K; 101.33 kPa; Liquid; Standard Abbe refractometry"}, "[2]": {"details": "Liquid; for mass density: 298.15 K, 101.33 kPa; for vapor or sublimation pressure: Ebulliometric method (Recirculating still)"}}, "note": "Numbers after ± are expanded uncertainties.", "data": [{"smiles": "CC(C)OC(C)C", "note": "[diisopropyl ether]", "values": [{"measurement": "refractive index", "setting": "[1]", "value": "1.3652 ± 0.0005"}, {"measurement": "mass density", "setting": "[2]", "value": "718.32 ± 0.96", "unit": "kg/m3"}, {"measurement": "vapor or sublimation pressure", "setting": "[2]; 341.49 K", "value": "101.3 ± 0.3", "unit": "kPa"}]}, {"smiles": "CCCCOC(=O)CC", "note": "[butyl propanoate]", "values": [{"measurement": "refractive index", "setting": "[1]", "value": "1.3992 ± 0.0005"}, {"measurement": "mass density", "setting": "[2]", "value": "870.88 ± 0.65", "unit": "kg/m3"}, {"measurement": "vapor or sublimation pressure", "setting": "[2]; 418.69 K", "value": "101.3 ± 0.3", "unit": "kPa"}]}, {"smiles": "CC(C)O", "note": "[propan-2-ol]", "values": [{"measurement": "refractive index", "setting": "[1]", "value": "1.3754 ± 0.0005"}, {"measurement": "mass density", "setting": "[2]", "value": "782.69 ± 0.24", "unit": "kg/m3"}, {"measurement": "vapor or sublimation pressure", "setting": "[2]; 355.35 K", "value": "101.3 ± 0.2", "unit": "kPa"}]}]}
